Data as given in ChEMBL document CHEMBL5370626, “Targeting the Subpocket Enables the Discovery of Thiadiazole-Pyridazine Derivatives as Glutaminase C Inhibitors” (ACS Med Chem Lett, 2023).
Calls of active or inactive are those of the source. The rule behind the calls is not given here.

Columns and labels:
[1] = target: T1, Glutaminase kidney isoform, mitochondrial (Homo sapiens) (UniProt O94925); assay: Inhibition of GAC (unknown origin)
T1 sequence (whole entry): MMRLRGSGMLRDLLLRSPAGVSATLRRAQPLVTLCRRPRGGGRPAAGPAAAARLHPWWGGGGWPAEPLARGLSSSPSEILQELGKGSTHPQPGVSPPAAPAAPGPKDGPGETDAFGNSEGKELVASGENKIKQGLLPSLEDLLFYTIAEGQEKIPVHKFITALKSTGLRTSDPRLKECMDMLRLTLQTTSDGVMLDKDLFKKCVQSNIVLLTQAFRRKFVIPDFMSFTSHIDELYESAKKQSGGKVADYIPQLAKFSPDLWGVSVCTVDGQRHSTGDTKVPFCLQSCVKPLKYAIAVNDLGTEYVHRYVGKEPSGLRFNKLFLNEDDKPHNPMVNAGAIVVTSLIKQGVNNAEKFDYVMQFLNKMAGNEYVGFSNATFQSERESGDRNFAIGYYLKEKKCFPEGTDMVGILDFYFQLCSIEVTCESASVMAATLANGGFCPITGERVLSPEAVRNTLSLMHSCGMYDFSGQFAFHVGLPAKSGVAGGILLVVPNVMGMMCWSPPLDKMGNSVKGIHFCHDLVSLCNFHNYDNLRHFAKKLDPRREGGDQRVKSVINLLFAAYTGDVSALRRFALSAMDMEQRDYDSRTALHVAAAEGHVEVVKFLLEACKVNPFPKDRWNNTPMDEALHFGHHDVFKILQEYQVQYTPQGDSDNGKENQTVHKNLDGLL

[2] = Oral bioavailability in Sprague-Dawley rat plasma at 100 mg/kg measured up to 48 hrs by LC-MS/MS analysis; type: ADME, organism-based
[3] = (§1) Inhibition of human recombinant GAC K320A mutant (73 to 598 residues ) expressed in Escherichia coli BL21 (DE3) cells incubated for 10 mins by fluorometric assay
Homo sapiens = species: Homo sapiens; assay: as §1
A549 [4] = assay: Antiproliferative activity against human A549 cells assessed as reduction in cell viability incubated for 72 hrs by Celltiter-glo assay; type: functional, cell-based; details: A549, 72 h
A549 [5] = assay: Inhibition of colony formation in human A549 cells assessed as reduction of colony number at 1 uM measured after 4 days by crystal violet staining-based colony formation assay relative to control; type: functional; details: A549, 96 h, time 4 day
[6] = target: T1, Glutaminase kidney isoform, mitochondrial (Homo sapiens); assay: Inhibition of human GAC in A549 cells assessed as reduction in glutamate level at 100 to 1000 nM incubated for 16 hrs by colorimetric assay; type: cell-based; details: dose 100-1000 nM
[7] = Half life in Sprague-Dawley rat plasma at 100 mg/kg, po measured up to 48 hrs by LC-MS/MS analysis; type: ADME, organism-based
[8] = Half life in Sprague-Dawley rat plasma at 10 mg/kg, iv measured up to 48 hrs by LC-MS/MS analysis; type: ADME, organism-based
[9] = Tmax in Sprague-Dawley rat plasma at 100 mg/kg, po measured up to 48 hrs by LC-MS/MS analysis; type: ADME, organism-based
[10] = Tmax in Sprague-Dawley rat plasma at 10 mg/kg, iv measured up to 48 hrs by LC-MS/MS analysis; type: ADME, organism-based
[11] = Cmax in Sprague-Dawley rat plasma at 10 mg/kg, iv measured up to 48 hrs by LC-MS/MS analysis; type: ADME, organism-based; parameters: dose 10 mg/kg, time < 48 hrs, route iv
[12] = AUC(0 to t) in Sprague-Dawley rat plasma at 100 mg/kg, po measured up to 48 hrs by LC-MS/MS analysis; type: ADME, organism-based; parameters: dose 100 mg/kg, time < 48 hrs, route po
[13] = AUC(0 to t) in Sprague-Dawley rat plasma at 10 mg/kg, iv measured up to 48 hrs by LC-MS/MS analysis; type: ADME, organism-based; parameters: dose 10 mg/kg, time < 48 hrs, route iv
[14] = AUC(0 to infinity) in Sprague-Dawley rat plasma at 100 mg/kg, po measured up to 48 hrs by LC-MS/MS analysis; type: ADME, organism-based; parameters: dose 100 mg/kg, time < 48 hrs, route po
[15] = AUC(0 to infinity) in Sprague-Dawley rat plasma at 10 mg/kg, iv measured up to 48 hrs by LC-MS/MS analysis; type: ADME, organism-based; parameters: dose 10 mg/kg, time < 48 hrs, route iv
[16] = MRT(0 to t) in Sprague-Dawley rat plasma at 100 mg/kg, po measured up to 48 hrs by LC-MS/MS analysis; type: ADME, organism-based
[17] = MRT(0 to infinity) in Sprague-Dawley rat plasma at 100 mg/kg, po measured up to 48 hrs by LC-MS/MS analysis; type: ADME, organism-based
A549 [18] = assay: Antitumor activity against human A549 cells xenografted in Balb/c nude mouse assessed as tumor growth inhibition at 150 mg/kg, po administered once daily 24 days relative to control; type: functional, organism-based; details: time 24.0 day
[19] = Toxicity in Balb/c nude mouse xenografted with human A549 cells assessed as change in body weight at 100 to 150 mg/kg, po administered once daily 24 days; type: organism-based; details: in vivo, 576 h, dose 100-150 mg/kg, time 24 day
[20] = target: Voltage-gated inwardly rectifying potassium channel KCNH2 (Homo sapiens, UniProt Q12809); assay: Inhibition of human ERG expressed in HEK293 cells at -80 mV holding potential by whole cell patch-clamp assay; type: toxicity, cell-based
Chain of Voltage-gated inwardly rectifying potassium channel KCNH2 (Q12809 whole entry): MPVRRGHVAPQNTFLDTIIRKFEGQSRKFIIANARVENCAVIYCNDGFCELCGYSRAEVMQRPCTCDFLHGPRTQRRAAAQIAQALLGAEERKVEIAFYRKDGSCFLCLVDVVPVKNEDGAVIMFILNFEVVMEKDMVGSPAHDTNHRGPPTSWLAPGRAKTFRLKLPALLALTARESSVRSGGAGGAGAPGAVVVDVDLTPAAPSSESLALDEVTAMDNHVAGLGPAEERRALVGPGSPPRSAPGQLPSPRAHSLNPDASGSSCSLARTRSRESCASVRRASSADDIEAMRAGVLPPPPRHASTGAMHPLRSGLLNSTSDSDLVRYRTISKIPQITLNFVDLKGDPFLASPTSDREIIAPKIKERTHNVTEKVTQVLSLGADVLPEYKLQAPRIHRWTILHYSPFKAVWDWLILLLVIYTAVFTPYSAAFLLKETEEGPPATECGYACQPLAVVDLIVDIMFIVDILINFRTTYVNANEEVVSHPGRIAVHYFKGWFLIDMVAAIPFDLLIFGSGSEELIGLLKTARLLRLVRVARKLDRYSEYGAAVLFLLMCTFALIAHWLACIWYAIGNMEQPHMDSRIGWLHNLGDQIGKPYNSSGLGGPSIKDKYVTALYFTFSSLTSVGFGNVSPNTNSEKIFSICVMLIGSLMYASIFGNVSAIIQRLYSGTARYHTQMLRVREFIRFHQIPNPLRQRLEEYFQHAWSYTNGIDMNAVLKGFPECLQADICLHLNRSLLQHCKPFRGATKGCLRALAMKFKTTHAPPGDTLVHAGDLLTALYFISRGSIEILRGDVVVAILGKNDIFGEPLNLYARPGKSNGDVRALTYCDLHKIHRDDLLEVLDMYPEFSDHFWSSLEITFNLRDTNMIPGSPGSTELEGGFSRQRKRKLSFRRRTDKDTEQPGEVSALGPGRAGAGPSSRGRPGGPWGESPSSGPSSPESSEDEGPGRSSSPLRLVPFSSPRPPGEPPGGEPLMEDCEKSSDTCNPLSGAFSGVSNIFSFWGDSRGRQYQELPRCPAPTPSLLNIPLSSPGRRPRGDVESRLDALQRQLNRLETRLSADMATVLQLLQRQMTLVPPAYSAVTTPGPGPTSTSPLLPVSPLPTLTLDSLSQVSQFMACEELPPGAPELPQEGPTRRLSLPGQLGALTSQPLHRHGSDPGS

[21] = target: Voltage-dependent L-type calcium channel subunit alpha-1C (Homo sapiens, UniProt Q13936); assay: Inhibition of Cav1.2 channel (unknown origin) incubated for 30 mins by Fluo-4 staining based FLIPR assay; type: toxicity; details: 0.5 h
[22] = target: Sodium channel protein type 5 subunit alpha (Homo sapiens, UniProt Q14524); assay: Inhibition of human Nav1.5 channel stably expressed in CHO cells at -120 mV holding potential by whole cell patch-clamp assay; type: toxicity, cell-based
Chain of Sodium channel protein type 5 subunit alpha (Q14524 whole entry): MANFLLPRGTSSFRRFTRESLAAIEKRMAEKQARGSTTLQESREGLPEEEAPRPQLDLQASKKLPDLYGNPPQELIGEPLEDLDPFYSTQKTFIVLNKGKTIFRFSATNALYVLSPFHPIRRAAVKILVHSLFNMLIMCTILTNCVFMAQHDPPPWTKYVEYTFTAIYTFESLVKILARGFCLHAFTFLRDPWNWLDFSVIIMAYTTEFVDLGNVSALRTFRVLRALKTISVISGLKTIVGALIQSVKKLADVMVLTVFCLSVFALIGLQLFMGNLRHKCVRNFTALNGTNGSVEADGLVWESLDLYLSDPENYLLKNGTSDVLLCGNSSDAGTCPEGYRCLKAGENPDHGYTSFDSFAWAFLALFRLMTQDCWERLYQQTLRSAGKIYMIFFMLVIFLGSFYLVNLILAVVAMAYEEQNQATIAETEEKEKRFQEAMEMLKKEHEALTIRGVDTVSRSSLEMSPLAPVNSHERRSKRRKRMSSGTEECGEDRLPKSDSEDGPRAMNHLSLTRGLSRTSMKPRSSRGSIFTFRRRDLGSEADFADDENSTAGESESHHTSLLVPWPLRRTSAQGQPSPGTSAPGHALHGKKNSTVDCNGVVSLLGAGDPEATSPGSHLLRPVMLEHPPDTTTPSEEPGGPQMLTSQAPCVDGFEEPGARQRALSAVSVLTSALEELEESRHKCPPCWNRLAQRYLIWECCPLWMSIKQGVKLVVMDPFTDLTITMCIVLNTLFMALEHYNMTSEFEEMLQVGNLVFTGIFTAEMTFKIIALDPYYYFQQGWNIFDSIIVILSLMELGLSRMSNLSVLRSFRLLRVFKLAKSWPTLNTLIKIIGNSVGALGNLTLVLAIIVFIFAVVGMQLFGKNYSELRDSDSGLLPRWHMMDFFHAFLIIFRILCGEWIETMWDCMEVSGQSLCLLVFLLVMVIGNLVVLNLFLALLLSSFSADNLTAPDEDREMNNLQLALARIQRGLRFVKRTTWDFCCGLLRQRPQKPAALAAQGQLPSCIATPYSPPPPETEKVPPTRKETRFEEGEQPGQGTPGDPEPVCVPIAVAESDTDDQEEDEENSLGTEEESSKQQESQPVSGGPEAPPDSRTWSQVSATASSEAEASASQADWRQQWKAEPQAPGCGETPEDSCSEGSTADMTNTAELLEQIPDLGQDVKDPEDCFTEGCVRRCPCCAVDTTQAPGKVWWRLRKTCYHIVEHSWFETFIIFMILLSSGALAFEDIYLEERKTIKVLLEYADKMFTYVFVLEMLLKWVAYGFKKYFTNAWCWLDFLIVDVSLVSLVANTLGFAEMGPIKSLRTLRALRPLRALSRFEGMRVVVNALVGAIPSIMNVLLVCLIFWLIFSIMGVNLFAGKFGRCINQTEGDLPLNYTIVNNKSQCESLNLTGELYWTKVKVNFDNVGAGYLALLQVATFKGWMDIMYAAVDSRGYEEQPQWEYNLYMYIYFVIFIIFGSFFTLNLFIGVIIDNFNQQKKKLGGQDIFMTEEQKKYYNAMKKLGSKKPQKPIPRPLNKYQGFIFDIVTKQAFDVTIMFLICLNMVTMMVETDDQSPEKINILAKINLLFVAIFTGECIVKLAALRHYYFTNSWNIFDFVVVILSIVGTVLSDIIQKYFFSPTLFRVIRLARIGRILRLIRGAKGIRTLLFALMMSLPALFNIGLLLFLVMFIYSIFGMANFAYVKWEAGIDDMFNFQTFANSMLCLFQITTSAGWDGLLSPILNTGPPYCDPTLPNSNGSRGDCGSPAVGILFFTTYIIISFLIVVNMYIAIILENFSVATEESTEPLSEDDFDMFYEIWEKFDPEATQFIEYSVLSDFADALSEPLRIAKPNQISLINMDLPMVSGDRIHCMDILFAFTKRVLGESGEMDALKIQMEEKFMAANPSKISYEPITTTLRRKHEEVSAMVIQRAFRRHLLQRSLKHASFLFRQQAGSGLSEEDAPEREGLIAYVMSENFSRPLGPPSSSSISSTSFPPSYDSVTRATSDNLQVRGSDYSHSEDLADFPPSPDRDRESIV

[23] = Mutagenicity in Salmonella typhimurium TA1535 measured at 1.5 to 1000 ug per well for 48 to 72 hrs by mini-Ames test; type: toxicity, Salmonella enterica subsp. enterica serovar Typhimurium; details: in vivo; dose lower 1.5 µg, time lower 48 hrs, dose upper 1000 µg, time upper 72 hrs
[24] = Mutagenicity in Salmonella typhimurium TA1537 measured at 1.5 to 1000 ug per well for 48 to 72 hrs by mini-Ames test; type: toxicity, Salmonella enterica subsp. enterica serovar Typhimurium; details: in vivo; dose lower 1.5 µg, time lower 48 hrs, dose upper 1000 µg, time upper 72 hrs
[25] = Mutagenicity in Escherichia coli WP2 uvrA measured at 1.5 to 1000 ug per well for 48 to 72 hrs by mini-Ames test; type: toxicity; details: in vivo; dose lower 1.5 µg, time lower 48 hrs, dose upper 1000 µg, time upper 72 hrs
[26] = Mutagenicity in Salmonella typhimurium TA98 measured at 1.5 to 1000 ug per well for 48 to 72 hrs in presence of S9 liver fraction by mini-Ames test; type: toxicity, subcellular, Salmonella enterica subsp. enterica serovar Typhimurium; details: dose lower 1.5 µg, time lower 48 hrs, dose upper 1000 µg, time upper 72 hrs
[27] = Mutagenicity in Salmonella typhimurium TA100 measured at 1.5 to 1000 ug per well for 48 to 72 hrs in presence of S9 liver fraction by mini-Ames test; type: toxicity, subcellular, Salmonella enterica subsp. enterica serovar Typhimurium; details: dose lower 1.5 µg, time lower 48 hrs, dose upper 1000 µg, time upper 72 hrs
[28] = Mutagenicity in Salmonella typhimurium TA1535 measured at 1.5 to 1000 ug per well for 48 to 72 hrs in presence of S9 liver fraction by mini-Ames test; type: toxicity, subcellular, Salmonella enterica subsp. enterica serovar Typhimurium; details: dose lower 1.5 µg, time lower 48 hrs, dose upper 1000 µg, time upper 72 hrs
[29] = Mutagenicity in Escherichia coli WP2 uvrA measured at 1.5 to 1000 ug per well for 48 to 72 hrs in presence of S9 liver fraction by mini-Ames test; type: toxicity, subcellular; details: dose lower 1.5 µg, time lower 48 hrs, dose upper 1000 µg, time upper 72 hrs

INH [1]: 8.9 nM | bioavailability [2]: 5% | EC50 [3]: 10.3 nM | IC50 (A549 [4]): 4.04 nM | inhibition [6]: Active | half-life [7]: 2.02 h | half-life [8]: 5.06 h | Tmax [9]: 2 h | Tmax [10]: 1.98 min | Cmax [11]: 6500 ng/mL | AUC(0-t) at 48 h [12]: 2310 ng·h/mL | AUC(0-t) at 48 h [13]: 4630 ng·h/mL | AUC(0-inf) [14]: 2330 ng·h/mL | AUC(0-inf) [15]: 4630 ng·h/mL | MRT last at 48 h [16]: 3.73 h | MRT inf [17]: 3.83 h
SMILES: O=C(Cc1cccc(Oc2ccccc2)c1)Nc1nnc(N[C@@H]2CCN(c3cccnn3)C2)s1
INH (Homo sapiens): 107 nM | inhibition at 1 µM (A549 [5]): ~100% | TGI (A549 [18]): Active | Activity [19]: Non-Toxic | IC50 [20]: 7530 nM | INH [21]: 21.71 µM | INH [22]: > 30 µM | Activity [23]: Non-Toxic | Activity [24]: Non-Toxic | Activity [25]: Non-Toxic | Activity [26]: Non-Toxic | Activity [27]: Non-Toxic | Activity [28]: Non-Toxic | Activity [29]: Non-Toxic
